Laboratory results taken from US7524964B2, “Tetrahydrothiopyrano pyrazole cannabinoid modulators” (Janssen Pharmaceutica NV, priority 2005, dated 2009).
Read-outs that look alike come from different tables or passages of the source.

What was measured:
human CB1 receptor = human CB1 receptor (Homo sapiens, UniProt P21554); test: Binding assay, cannabinoid CB1 receptor ([3H]-CP-55,940 displacement); design: expressed in transfected cells; host or cells: SK-N-MC cells, pcDNA3 CB-1 (human), semi-purified membranes; conditions: for inhibition at 0.2 µM: test concentration 0.2 μM (superscript a); for inhibition at 0.2 µM / inhibition at 10 µM / inhibition at 1 µM: read-out: CB1 binding percent inhibition; for inhibition at 10 µM: test concentration 10 μM (superscript c); for inhibition at 1 µM: test concentration 1 μM (superscript b)
Chain of human CB1 receptor (P21554 whole entry): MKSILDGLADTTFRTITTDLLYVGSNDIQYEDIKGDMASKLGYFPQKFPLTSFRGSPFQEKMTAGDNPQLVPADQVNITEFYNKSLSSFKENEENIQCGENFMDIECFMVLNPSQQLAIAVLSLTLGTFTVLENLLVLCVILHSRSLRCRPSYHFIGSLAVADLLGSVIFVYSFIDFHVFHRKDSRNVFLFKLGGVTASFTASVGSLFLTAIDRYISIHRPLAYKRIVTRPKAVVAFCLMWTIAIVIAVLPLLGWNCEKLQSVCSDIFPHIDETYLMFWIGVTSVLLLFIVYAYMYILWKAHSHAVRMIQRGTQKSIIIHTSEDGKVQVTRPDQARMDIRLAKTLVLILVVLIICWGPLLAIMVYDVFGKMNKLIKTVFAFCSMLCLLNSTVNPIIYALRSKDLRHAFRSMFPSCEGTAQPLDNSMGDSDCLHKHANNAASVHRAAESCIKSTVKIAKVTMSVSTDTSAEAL
Outline: (§1)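 Displacement of 0.2 nM [3H]-CP-55,940 (non-specific: 10 uM WIN 55,212) was run on semi-purified membranes of transfected SK-N-MC cells carrying human CB-1 or CB-2, 90 min, 30° C, pH 7.5. Scintillation counting; IC50 by linear regression, else % inhibition at 0.2, 1 or 10 μM.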

human CB-2 receptor = target: T1, human CB-2 receptor (Homo sapiens, UniProt P34972); test: Binding assay, cannabinoid CB2 receptor ([3H]-CP-55,940 displacement); conditions: read-out: CB2 binding percent inhibition; for inhibition at 10 µM: test concentration 10 μM (superscript c); for inhibition at 1 µM: test concentration 1 μM (superscript b)
T1 construct: expressed in transfected cells; host or cells: SK-N-MC cells, pcDNA3 CB-2 (human), semi-purified membranes
T1 sequence (P34972 whole entry): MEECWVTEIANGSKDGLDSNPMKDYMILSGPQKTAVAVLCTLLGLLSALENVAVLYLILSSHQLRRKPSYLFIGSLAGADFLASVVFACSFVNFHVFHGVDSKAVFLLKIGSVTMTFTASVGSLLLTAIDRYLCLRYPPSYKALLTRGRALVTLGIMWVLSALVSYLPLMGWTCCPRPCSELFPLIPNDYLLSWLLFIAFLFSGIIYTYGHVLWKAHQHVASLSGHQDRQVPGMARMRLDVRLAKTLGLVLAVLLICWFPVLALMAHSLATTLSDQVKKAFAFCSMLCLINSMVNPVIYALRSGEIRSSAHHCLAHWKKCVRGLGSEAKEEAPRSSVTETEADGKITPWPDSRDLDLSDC
Outline: as §1

[1] = test concentration 0.2 μM (superscript a)

| Structure (SMILES) | IC50 (human CB1 receptor) | inhibition at 0.2 µM (human CB-2 receptor; [1]) | inhibition at 0.2 µM (human CB1 receptor) | other results |
| --- | --- | --- | --- | --- |
| O=C(NN1CCCCCC1)c1nn(-c2ccc(Cl)cc2Cl)c2c1CSC/C2=C\c1ccc(F)cc1 [Cpd 112, (7Z)-1-(2,4-dichloro-phenyl)-7-(4-fluoro-benzylidene)-1,4,6,7-tetrahydro-thiopyrano[4,3-c]pyrazole-3-carboxylic acid azepan-1-ylamide] | 10 nM | 8% |  |  |
| O=C(NN1CCCCC1)c1nn(-c2ccc(Cl)cc2)c2c1CS(=O)(=O)C/C2=C\c1ccc(F)cc1 [Cpd 99, (7Z)-1-(4-chloro-phenyl)-7-(4-fluoro-benzylidene)-5,5-dioxo-4,5,6,7-tetrahydro-1H-5λ^6-thiopyrano[4,3-c]pyrazole-3-carboxylic acid piperidin-1-ylamide] |  | 12% | 66% |  |
| CC1CCCC(C)N1NC(=O)c1nn(-c2ccc(Cl)cc2Cl)c2c1CS(=O)(=O)C/C2=C\c1ccc(F)cc1 (centres unmarked) [Cpd 108, (7Z)-1-(2,4-dichloro-phenyl)-7-(4-fluoro-benzylidene)-5,5-dioxo-4,5,6,7-tetrahydro-1H-5λ^6-thiopyrano[4,3-c]pyrazole-3-carboxylic acid (2,6-dimethyl-piperidin-1-yl)-amide] |  | 18% | 88% |  |
| C[C@@H](NC(=O)c1nn(-c2ccc(Cl)cc2Cl)c2c1C[S+]([O-])C/C2=C\c1ccc(F)cc1)c1ccccc1 (stereo partly drawn) [Cpd 75, (7Z)-1-(2,4-dichloro-phenyl)-7-(4-fluoro-benzylidene)-5-oxo-4,5,6,7-tetrahydro-1H-5λ^4-thiopyrano[4,3-c]pyrazole-3-carboxylic acid [(1R)-1-phenyl-ethyl]-amide] | 14 nM | 2% |  |  |
| O=C(NN1CC2CCCC2C1)c1c2c(nn1-c1ccc(Cl)cc1Cl)/C(=C/c1ccc(F)cc1)CS(=O)(=O)C2 (centres unmarked) [Cpd 87, (7Z)-2-(2,4-dichloro-phenyl)-7-(4-fluoro-benzylidene)-5,5-dioxo-4,5,6,7-tetrahydro-2H-5λ^6-thiopyrano[4,3-c]pyrazole-3-carboxylic acid (hexahydro-cyclopenta[c]pyrrol-2-yl)-amide] | 18 nM | 4% |  |  |
| C[C@@H](NC(=O)c1c2c(nn1-c1ccc(Cl)cc1Cl)/C(=C/c1ccc(F)cc1)CSC2)C1CCCCC1 [Cpd 89, (7Z)-2-(2,4-dichloro-phenyl)-7-(4-fluoro-benzylidene)-2,4,6,7-tetrahydro-thiopyrano[4,3-c]pyrazole-3-carboxylic acid [(1R)-1-cyclohexyl-ethyl]-amide] | 74 nM | 10% |  |  |
| CN(NC(=O)c1nn(-c2ccc(Cl)cc2)c2c1CS(=O)(=O)C/C2=C\c1ccc(F)cc1)c1ccccc1 [Cpd 100, (7Z)-1-(4-chloro-phenyl)-7-(4-fluoro-benzylidene)-5,5-dioxo-4,5,6,7-tetrahydro-1H-5λ^6-thiopyrano[4,3-c]pyrazole-3-carboxylic acid N′-methyl-N′-phenyl-hydrazide] | 25 nM |  |  | inhibition at 0.2 µM (human CB-2 receptor): 9% |
| COC[C@@H]1CCCN1NC(=O)c1nn(-c2ccc(Cl)cc2Cl)c2c1CSC/C2=C\c1ccc(F)cc1 [Cpd 123, (7Z)-1-(2,4-dichloro-phenyl)-7-(4-fluoro-benzylidene)-1,4,6,7-tetrahydro-thiopyrano[4,3-c]pyrazole-3-carboxylic acid [(2S)-2-(methoxymethyl)-pyrrolidin-1-yl]-amide] |  | 12% | 61% |  |
| C[C@@H](NC(=O)/C=C/c1nn(Cc2ccccc2)c2c1C[S+]([O-])CC2)c1ccccc1 (stereo partly drawn) [Cpd 35, (2E)-3-(1-benzyl-5-oxo-4,5,6,7-tetrahydro-1H-5λ^4-thiopyrano[4,3-c]pyrazol-3-yl)-N-[(1R)-1-phenyl-ethyl]-acrylamide] |  |  |  | inhibition at 10 µM (human CB1 receptor): 4%; inhibition at 10 µM (human CB-2 receptor): 28% |
| O=C(N[C@@H]1c2ccccc2C[C@@H]1O)c1nn(-c2ccc(Cl)cc2Cl)c2c1CS(=O)(=O)C/C2=C\c1ccc(F)cc1 [Cpd 69, (7Z)-1-(2,4-dichloro-phenyl)-7-(4-fluoro-benzylidene)-5,5-dioxo-4,5,6,7-tetrahydro-1H-5λ^6-thiopyrano[4,3-c]pyrazole-3-carboxylic acid [(1R,2S)-2-hydroxy-indan-1-yl]-amide] | 23 nM | 10% |  |  |
| C[C@@H](NC(=O)c1nn(-c2ccc(Cl)cc2Cl)c2c1CS(=O)(=O)C/C2=C\c1ccc(F)cc1)c1ccccc1 [Cpd 66, (7Z)-1-(2,4-dichloro-phenyl)-7-(4-fluoro-benzylidene)-5,5-dioxo-4,5,6,7-tetrahydro-1H-5λ^6-thiopyrano[4,3-c]pyrazole-3-carboxylic acid [(1R)-1-phenyl-ethyl]-amide] | 4 nM | 24% |  |  |
| O=C(N[C@@H]1CCC[C@H]1O)c1nn(-c2ccc(Cl)cc2Cl)c2c1C[S+]([O-])C/C2=C\c1ccc(F)cc1 (stereo partly drawn) [Cpd 76, (7Z)-1-(2,4-dichloro-phenyl)-7-(4-fluoro-benzylidene)-5-oxo-4,5,6,7-tetrahydro-1H-5λ^4-thiopyrano[4,3-c]pyrazole-3-carboxylic acid [(1R,2R)-2-hydroxy-cyclopentyl]-amide] |  | 0% | 20% |  |
| COC[C@H]1CCCN1NC(=O)c1nn(-c2ccc(Cl)cc2Cl)c2c1CS(=O)(=O)C/C2=C\c1ccc(F)cc1 [Cpd 126, (7Z)-1-(2,4-dichloro-phenyl)-7-(4-fluoro-benzylidene)-5,5-dioxo-4,5,6,7-tetrahydro-1H-5λ^6-thiopyrano[4,3-c]pyrazole-3-carboxylic acid [(2R)-2-(methoxymethyl)-pyrrolidin-1-yl]-amide] |  | 0% | 55% |  |
| C[C@@H](NC(=O)/C=C/c1nn(Cc2ccccc2)c2c1CS(=O)(=O)CC2)c1ccccc1 [Cpd 37, (2E)-3-(1-benzyl-5,5-dioxo-4,5,6,7-tetrahydro-1H-5λ^6-thiopyrano[4,3-c]pyrazol-3-yl)-N-[(1R)-1-phenyl-ethyl]-acrylamide] |  |  |  | inhibition at 10 µM (human CB1 receptor): 11%; inhibition at 10 µM (human CB-2 receptor): 7% |
| C[C@@H](NC(=O)c1nn(-c2ccc(Cl)cc2Cl)c2c1CS(=O)(=O)CC2)c1ccccc1 [Cpd 128, 1-(2,4-dichloro-phenyl)-5,5-dioxo-4,5,6,7-tetrahydro-1H-5λ^6-thiopyrano[4,3-c]pyrazole-3-carboxylic acid [(1R)-1-phenyl-ethyl]-amide] |  | 10% | 5% |  |
| C[C@H](NS(=O)(=O)/C=C/c1nn(Cc2ccccc2)c2c1CS(=O)(=O)CC2)c1ccccc1 [Cpd 18, (E)-2-(1-benzyl-5,5-dioxo-4,5,6,7-tetrahydro-1H-5λ^6-thiopyrano[4,3-c]pyrazol-3-yl)-ethenesulfonic acid [(1S)-1-phenyl-ethyl]-amide] |  |  |  | inhibition at 1 µM (human CB1 receptor): 0%; inhibition at 1 µM (human CB-2 receptor): 40% |
| CN1CCN(NC(=O)c2nn(-c3ccc(Cl)cc3Cl)c3c2CSC/C3=C\c2ccc(F)cc2)CC1 [Cpd 113, (7Z)-1-(2,4-dichloro-phenyl)-7-(4-fluoro-benzylidene)-1,4,6,7-tetrahydro-thiopyrano[4,3-c]pyrazole-3-carboxylic acid (4-methyl-piperazin-1-yl)-amide] |  | 0% | 17% |  |
| O=C(NN1CCCCC1)c1nn(-c2ccc(Cl)cc2Cl)c2c1CS(=O)(=O)C/C2=C\c1ccc(F)cc1 [Cpd 81, (7Z)-1-(2,4-dichloro-phenyl)-7-(4-fluoro-benzylidene)-5,5-dioxo-4,5,6,7-tetrahydro-1H-5λ^6-thiopyrano[4,3-c]pyrazole-3-carboxylic acid piperidin-1-ylamide] | 32 nM | 24% |  |  |
| C[C@H](NS(=O)(=O)/C=C/c1c2c(nn1Cc1ccccc1)CCS(=O)(=O)C2)c1ccccc1 [Cpd 10, (E)-2-(2-benzyl-5,5-dioxo-4,5,6,7-tetrahydro-2H-5λ^6-thiopyrano[4,3-c]pyrazol-3-yl)-ethenesulfonic acid [(1S)-1-phenyl-ethyl]-amide] |  |  |  | inhibition at 1 µM (human CB1 receptor): 0%; inhibition at 1 µM (human CB-2 receptor): 36% |
| O=S(=O)(/C=C/c1nn(-c2ccc(F)cc2F)c2c1CSCC2Cc1cccc(F)c1)NN1CCOCC1 (centres unmarked) [Cpd 41, (E)-2-[1-(2,4-difluoro-phenyl)-7-(3-fluoro-benzyl)-1,4,6,7-tetrahydro-thiopyrano[4,3-c]pyrazol-3-yl]-ethenesulfonic acid morpholin-4-ylamide] |  | 8% | 9% |  |
| C[C@H](NS(=O)(=O)/C=C/c1c2c(nn1Cc1ccccc1)CCSC2)C1CCCCC1 [Cpd 8] |  |  |  | inhibition at 1 µM (human CB1 receptor): 8%; inhibition at 1 µM (human CB-2 receptor): 5% |
| O=C(NN1CC2CCCC2C1)c1nn(-c2ccc(Cl)cc2)c2c1CSC/C2=C\c1ccc(F)cc1 (centres unmarked) [Cpd 103, (7Z)-1-(4-chloro-phenyl)-7-(4-fluoro-benzylidene)-1,4,6,7-tetrahydro-thiopyrano[4,3-c]pyrazole-3-carboxylic acid (hexahydro-cyclopenta[c]pyrrol-2-yl)-amide] |  | 5% | 62% |  |
